Laboratory results reported in ChEMBL document CHEMBL1201862, “PubChem BioAssay data set” (2004).
Values belong to the compound of their own block, whether it stands above or below them. Activity calls are given as the source filed them.

What was measured:
[1] = molecular target: Mothers against decapentaplegic homolog 3 (Homo sapiens, UniProt P84022); assay: Smad3 binding inhibitors, lysate ELISA, dose response, cell lysate, secondary confirmation, chemiluminescent ELISA, HEK293 lysate (AID 1058); assay type: functional
Sequence of Mothers against decapentaplegic homolog 3 (P84022 whole entry): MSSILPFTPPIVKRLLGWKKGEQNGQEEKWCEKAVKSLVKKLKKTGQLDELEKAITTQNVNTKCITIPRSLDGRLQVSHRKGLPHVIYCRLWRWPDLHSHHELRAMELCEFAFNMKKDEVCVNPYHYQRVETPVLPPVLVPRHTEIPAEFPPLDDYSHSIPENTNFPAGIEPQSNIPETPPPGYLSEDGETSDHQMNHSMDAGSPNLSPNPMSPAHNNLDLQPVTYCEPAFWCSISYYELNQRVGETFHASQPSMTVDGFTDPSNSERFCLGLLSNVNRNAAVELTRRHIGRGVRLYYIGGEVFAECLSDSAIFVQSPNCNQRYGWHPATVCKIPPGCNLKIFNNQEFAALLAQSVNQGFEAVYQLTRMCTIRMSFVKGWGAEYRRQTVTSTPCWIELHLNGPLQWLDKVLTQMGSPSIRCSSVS

[2] = molecular target: Induced myeloid leukemia cell differentiation protein Mcl-1 (Homo sapiens, UniProt Q07820); assay: MCL1-BIM BH3 interaction inhibitors, dose response, biochemical, fluorescence polarization, BIM-BH3 peptide, 1536-well (AID 2217)
Sequence of Induced myeloid leukemia cell differentiation protein Mcl-1 (Q07820 whole entry): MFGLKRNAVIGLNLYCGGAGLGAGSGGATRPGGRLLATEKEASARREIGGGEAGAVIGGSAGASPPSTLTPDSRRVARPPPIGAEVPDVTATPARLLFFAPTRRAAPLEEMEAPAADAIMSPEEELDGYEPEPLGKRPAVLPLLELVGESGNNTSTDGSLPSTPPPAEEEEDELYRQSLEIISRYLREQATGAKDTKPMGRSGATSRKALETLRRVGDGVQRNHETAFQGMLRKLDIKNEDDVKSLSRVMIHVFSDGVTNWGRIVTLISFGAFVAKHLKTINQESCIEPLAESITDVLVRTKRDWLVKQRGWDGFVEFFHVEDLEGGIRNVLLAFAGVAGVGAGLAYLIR

Protein Tat = molecular target: T1, Protein Tat (Human immunodeficiency virus type 1 group M subtype B (isolate HXB2)(HIV-1), UniProt P04608); assay type: functional;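 note: tat binding to TAR RNA read out by fluorescence polarization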
T1 sequence (P04608 whole entry): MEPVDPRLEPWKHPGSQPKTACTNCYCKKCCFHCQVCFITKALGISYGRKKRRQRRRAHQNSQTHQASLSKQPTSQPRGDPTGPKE

[3] = molecular target: T2, Carboxy-terminal domain RNA polymerase II polypeptide A small phosphatase 1 (Homo sapiens, UniProt Q9GZU7); assay: inhibitors of CTDSP1, concentration-response testing, biochemical assay, absorbance-based, actives from ultra-high-throughput screening (AID 540297); assay type: functional
T2 sequence (Q9GZU7 whole entry): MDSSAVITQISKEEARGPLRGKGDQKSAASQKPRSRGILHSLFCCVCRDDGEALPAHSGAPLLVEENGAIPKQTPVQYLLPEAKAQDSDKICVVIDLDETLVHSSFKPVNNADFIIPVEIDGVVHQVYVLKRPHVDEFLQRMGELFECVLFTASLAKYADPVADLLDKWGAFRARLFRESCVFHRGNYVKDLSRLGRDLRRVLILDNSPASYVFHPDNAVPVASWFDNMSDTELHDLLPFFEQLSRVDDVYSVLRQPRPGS

Bcl-2-like protein 1 = Bcl-2-like protein 1 (Homo sapiens, UniProt Q07817); assay: BCL-XL inhibitors, dose response, selectivity assay for MCL1 inhibitor project, biochemical, fluorescence polarization, 1536-well (AID 2218)
Sequence of Bcl-2-like protein 1 (Q07817 whole entry): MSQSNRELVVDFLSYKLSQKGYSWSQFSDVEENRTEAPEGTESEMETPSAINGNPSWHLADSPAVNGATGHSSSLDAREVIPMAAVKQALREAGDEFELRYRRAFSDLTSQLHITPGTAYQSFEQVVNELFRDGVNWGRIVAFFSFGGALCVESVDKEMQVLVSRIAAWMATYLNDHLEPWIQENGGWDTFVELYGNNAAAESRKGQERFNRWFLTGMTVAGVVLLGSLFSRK

NADPH oxidase 1 = NADPH oxidase 1 (Homo sapiens, UniProt Q9Y5S8); assay type: functional, cell-based;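 note: Cell-based assay with luminescence read-out, IC50 derived from inhibitor dose-response curves; intracellular ROS from endogenous NOX1 in intact HT29 colon cancer cells; potency of inhibitors that lower the ROS luminescence signal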
Sequence of NADPH oxidase 1 (Q9Y5S8 whole entry): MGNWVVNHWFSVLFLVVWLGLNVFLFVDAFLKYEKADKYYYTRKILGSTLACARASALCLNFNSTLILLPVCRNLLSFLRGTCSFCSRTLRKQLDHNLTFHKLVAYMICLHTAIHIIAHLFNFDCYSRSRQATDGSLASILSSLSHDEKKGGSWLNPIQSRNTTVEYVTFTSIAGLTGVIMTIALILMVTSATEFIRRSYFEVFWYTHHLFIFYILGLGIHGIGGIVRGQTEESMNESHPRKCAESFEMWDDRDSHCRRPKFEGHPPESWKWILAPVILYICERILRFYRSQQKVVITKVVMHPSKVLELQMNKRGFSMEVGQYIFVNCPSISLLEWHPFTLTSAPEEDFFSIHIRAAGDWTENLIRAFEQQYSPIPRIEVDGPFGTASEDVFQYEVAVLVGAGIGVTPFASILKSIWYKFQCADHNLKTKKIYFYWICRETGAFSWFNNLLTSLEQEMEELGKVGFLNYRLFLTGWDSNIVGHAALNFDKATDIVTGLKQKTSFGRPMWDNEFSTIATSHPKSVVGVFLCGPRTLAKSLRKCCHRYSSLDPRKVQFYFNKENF

Estrogen receptor = molecular target: T3, Estrogen receptor (Homo sapiens, UniProt P03372); assay: ERα–SRC-3 coactivator interaction inhibitors, confirmation, orthogonal assay, biochemical, ELISA, streptavidin-HRP readout (AID 1079)
T3 sequence (P03372 whole entry): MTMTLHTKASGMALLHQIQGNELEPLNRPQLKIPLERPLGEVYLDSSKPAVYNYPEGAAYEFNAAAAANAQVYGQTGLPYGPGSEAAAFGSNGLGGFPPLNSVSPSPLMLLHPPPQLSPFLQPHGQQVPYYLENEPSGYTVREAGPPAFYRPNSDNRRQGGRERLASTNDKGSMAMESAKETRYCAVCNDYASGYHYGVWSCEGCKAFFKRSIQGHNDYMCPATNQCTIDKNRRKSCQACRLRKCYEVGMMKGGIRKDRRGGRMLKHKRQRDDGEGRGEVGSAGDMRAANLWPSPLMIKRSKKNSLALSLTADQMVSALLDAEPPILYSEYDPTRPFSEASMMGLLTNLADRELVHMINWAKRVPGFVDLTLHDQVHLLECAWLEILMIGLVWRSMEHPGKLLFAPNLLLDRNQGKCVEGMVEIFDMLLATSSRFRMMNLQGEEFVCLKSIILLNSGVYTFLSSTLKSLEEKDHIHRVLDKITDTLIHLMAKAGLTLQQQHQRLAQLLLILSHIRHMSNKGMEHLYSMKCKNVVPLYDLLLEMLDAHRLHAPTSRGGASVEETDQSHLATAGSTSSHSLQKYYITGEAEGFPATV

Compound: CC1NC(C(=O)O)Cc2cc(O)c(O)cc21 (configuration not stated)
- IC50 [1]: > 50 µM (not active)

- IC50 [2]: > 109 µM (not active)
- IC50 (Protein Tat): > 100 µM (active)
- IC50 [3]: 4.78 µM (active)
- IC50 (Bcl-2-like protein 1): > 109 µM (not active)
Compound: Cc1ccc(NC(=O)c2cc(-c3ccc(C)o3)nc3ccccc23)nc1

- IC50 (NADPH oxidase 1): 1.15 µM (active)
Compound: COc1cc(-c2nc3c4ccccc4c4ccccc4c3[nH]2)ccc1O

- IC50 (Estrogen receptor): 0.05 µM (not active)
Compound: O=C(CCCn1c(=S)[nH]c2ccccc2c1=O)N1CCC(c2ccccc2)CC1
